Source: the NIST ThermoML archive (doi:10.1016/j.jct.2019.02.011)

Assay: xn = mol fraction of the nth substance listed
Conditions: Liquid, Vibrating tube method

COC(=O)OC [dimethyl carbonate] + CCO
mass density [kg/m3]
Conditions	100 kPa	5000 kPa	10000 kPa	15000 kPa	20000 kPa	25000 kPa	30000 kPa	35000 kPa	40000 kPa
298.15 K, x1 = 0.0252	–	–	–	–	–	814.77	818.23	821.35	824.85
298.15 K, x1 = 0.0506	–	–	–	–	–	824.39	827.85	831.03	834.55
298.15 K, x1 = 0.0757	–	–	–	–	–	833.72	837.24	840.42	843.95
298.15 K, x1 = 0.1003	–	–	–	–	–	842.57	846.09	849.38	852.92
298.15 K, x1 = 0.1508	–	–	–	–	–	860.52	864.11	867.41	871.01
298.15 K, x1 = 0.2	–	–	–	–	–	877.33	880.97	884.34	887.93
298.15 K, x1 = 0.2547	–	–	–	–	–	895.44	899.14	902.52	906.18
298.15 K, x1 = 0.3002	–	–	–	–	–	910.03	913.74	917.13	920.8
298.15 K, x1 = 0.3498	–	–	–	–	–	925.47	929.2	932.65	936.29
298.15 K, x1 = 0.4	–	–	–	–	–	940.64	944.38	947.84	951.52
298.15 K, x1 = 0.449	–	–	–	–	–	954.89	958.68	962.16	965.81
298.15 K, x1 = 0.4996	–	–	–	–	–	969.11	972.91	976.39	980.05
298.15 K, x1 = 0.5507	–	–	–	–	979.03	982.99	986.8	990.35	994.01
298.15 K, x1 = 0.6005	–	–	–	–	992.03	996	999.82	1003.37	1006.99
298.15 K, x1 = 0.6455	–	–	–	–	1003.31	1007.29	1011.17	1014.73	1018.41
298.15 K, x1 = 0.6931	–	–	–	–	1014.9	1018.88	1022.77	1026.34	1030.03
298.15 K, x1 = 0.7502	–	–	–	–	1028.23	1032.23	1036.12	1039.75	1043.4
298.15 K, x1 = 0.8009	–	–	–	–	1039.69	1043.7	1047.6	1051.24	1054.89
298.15 K, x1 = 0.8505	–	–	–	–	1050.49	1054.48	1058.39	1062.04	1065.71
298.15 K, x1 = 0.9008	–	–	–	–	1061.05	1065.07	1068.99	1072.64	1076.29
298.15 K, x1 = 0.9255	–	–	–	–	1066.12	1070.15	1074.07	1077.73	1081.38
298.15 K, x1 = 0.9477	–	–	–	–	1070.6	1074.63	1078.55	1082.21	1085.85
298.15 K, x1 = 0.9735	–	–	–	–	1075.75	1079.76	1083.68	1087.3	1090.94
298.15 K, x1 = 1	–	–	–	–	1080.9	1084.89	1088.82	1092.44	1096.04
303.15 K, x1 = 0.0252	790.52	794.85	799.09	803.19	807.07	810.85	814.45	–	–
303.15 K, x1 = 0.0506	799.8	804.24	808.54	812.68	816.57	820.4	824.05	–	–
303.15 K, x1 = 0.0757	808.95	813.38	817.69	821.83	825.78	829.67	833.32	–	–
303.15 K, x1 = 0.1003	817.66	822.15	826.46	830.66	834.61	838.5	842.15	–	–
303.15 K, x1 = 0.1508	835.2	839.75	844.12	848.37	852.39	856.28	859.99	–	–
303.15 K, x1 = 0.2	851.75	856.29	860.68	864.98	869.06	873.01	876.77	–	–
303.15 K, x1 = 0.2547	869.58	874.18	878.59	882.88	886.98	890.99	894.76	–	–
303.15 K, x1 = 0.3002	883.92	888.57	893.03	897.33	901.44	905.46	909.28	–	–
303.15 K, x1 = 0.3498	899.15	903.81	908.28	912.64	916.76	920.83	924.6	–	–
303.15 K, x1 = 0.4	914.01	918.72	923.21	927.61	931.75	935.83	939.65	–	–
303.15 K, x1 = 0.449	928.1	932.82	937.32	941.72	945.87	949.95	953.78	–	–
303.15 K, x1 = 0.4996	942.11	946.83	951.34	955.75	959.95	964.05	967.88	–	–
303.15 K, x1 = 0.5507	955.78	960.51	965.03	969.44	973.66	977.76	981.64	–	–
303.15 K, x1 = 0.6005	968.59	973.37	977.9	982.31	986.54	990.65	994.54	–	–
303.15 K, x1 = 0.6455	979.73	984.57	989.11	993.57	997.8	1001.97	1005.86	–	–
303.15 K, x1 = 0.6931	991.23	996.02	1000.62	1005.08	1009.33	1013.44	1017.34	–	–
303.15 K, x1 = 0.7502	1004.42	1009.26	1013.82	1018.28	1022.54	1026.71	1030.61	–	–
303.15 K, x1 = 0.8009	1015.74	1020.59	1025.15	1029.62	1033.88	1038.07	1041.97	–	–
303.15 K, x1 = 0.8505	1026.43	1031.28	1035.85	1040.32	1044.59	1048.83	–	–	–
303.15 K, x1 = 0.9008	1036.88	1041.74	1046.31	1050.81	1055.12	1059.33	–	–	–
303.15 K, x1 = 0.9255	1041.88	1046.76	1051.32	1055.83	1060.15	1064.37	–	–	–
303.15 K, x1 = 0.9477	1046.34	1051.21	1055.79	1060.28	1064.6	1068.85	–	–	–
303.15 K, x1 = 0.9735	1051.45	1056.32	1060.89	1065.37	1069.67	1073.92	–	–	–
303.15 K, x1 = 1	1056.61	1061.47	1066.02	1070.49	1074.79	1078.99	–	–	–
